Source: patent US11739098B2 (BRISTOL-MYERS SQUIBB COMPANY, priority 2017, dated 2023)

Legend:
Type in all cases: cell-based
human TLR9 = molecular target: T1, human TLR9 (Homo sapiens, UniProt Q9NR96); assay: TLR9 inhibition reporter assay (HEK-Blue cells, SEAP reporter, ODN2006 stimulation); settings: HEK-Blue cells overexpressing human TLR9, SEAP reporter, ODN2006 5 nM
T1 construct: host or cells: HEK-Blue cells (HEK293-derived reporter line)
T1 sequence (Q9NR96 26-1032): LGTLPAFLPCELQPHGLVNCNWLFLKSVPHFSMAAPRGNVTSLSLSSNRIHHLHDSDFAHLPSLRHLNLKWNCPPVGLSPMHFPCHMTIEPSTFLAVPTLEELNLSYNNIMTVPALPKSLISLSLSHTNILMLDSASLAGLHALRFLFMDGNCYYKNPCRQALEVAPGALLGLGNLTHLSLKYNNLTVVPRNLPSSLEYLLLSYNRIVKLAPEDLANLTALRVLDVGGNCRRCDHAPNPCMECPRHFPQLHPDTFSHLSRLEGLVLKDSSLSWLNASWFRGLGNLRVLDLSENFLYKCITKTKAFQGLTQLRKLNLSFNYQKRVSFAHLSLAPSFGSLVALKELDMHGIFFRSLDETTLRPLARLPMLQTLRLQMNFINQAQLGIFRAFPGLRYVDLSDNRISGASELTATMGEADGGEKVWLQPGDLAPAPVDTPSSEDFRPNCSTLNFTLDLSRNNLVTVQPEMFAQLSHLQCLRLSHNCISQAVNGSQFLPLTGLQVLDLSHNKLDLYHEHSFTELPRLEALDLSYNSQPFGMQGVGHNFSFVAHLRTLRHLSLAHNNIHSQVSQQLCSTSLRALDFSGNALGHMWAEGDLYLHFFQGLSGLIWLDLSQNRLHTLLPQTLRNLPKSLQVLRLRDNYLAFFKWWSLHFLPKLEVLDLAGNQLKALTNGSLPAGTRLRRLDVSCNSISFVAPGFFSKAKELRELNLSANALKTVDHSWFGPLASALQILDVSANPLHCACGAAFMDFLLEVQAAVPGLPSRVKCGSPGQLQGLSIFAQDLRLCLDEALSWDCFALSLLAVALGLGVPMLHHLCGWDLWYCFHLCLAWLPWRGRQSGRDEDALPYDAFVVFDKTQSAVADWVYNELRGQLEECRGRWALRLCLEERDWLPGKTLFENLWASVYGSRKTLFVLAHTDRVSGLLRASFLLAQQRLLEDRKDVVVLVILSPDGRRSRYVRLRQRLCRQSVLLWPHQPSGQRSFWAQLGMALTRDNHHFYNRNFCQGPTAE
Summary of the method: (§1)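 HEK-Blue cells overexpressing human TLR7, TLR8 or TLR9 (NF-κB/AP-1-driven SEAP) pre-treated 30 min at room temperature with compound (0.05 nM–50 μM), then stimulated with gardiquimod 7.5 μM (TLR7), R848 15.9 μM (TLR8) or ODN2006 5 nM (TLR9). SEAP read colorimetrically after 22 h at 37 °C; % inhibition calculated.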

human TLR8 = molecular target: T2, human TLR8 (Homo sapiens, UniProt Q9NR97); assay: TLR8 inhibition reporter assay (HEK-Blue cells, SEAP reporter, R848 stimulation); settings: HEK-Blue cells overexpressing human TLR8, SEAP reporter, R848 15.9 μM
T2 construct: host or cells: HEK-Blue cells (HEK293-derived reporter line)
T2 sequence (Q9NR97 27-1041): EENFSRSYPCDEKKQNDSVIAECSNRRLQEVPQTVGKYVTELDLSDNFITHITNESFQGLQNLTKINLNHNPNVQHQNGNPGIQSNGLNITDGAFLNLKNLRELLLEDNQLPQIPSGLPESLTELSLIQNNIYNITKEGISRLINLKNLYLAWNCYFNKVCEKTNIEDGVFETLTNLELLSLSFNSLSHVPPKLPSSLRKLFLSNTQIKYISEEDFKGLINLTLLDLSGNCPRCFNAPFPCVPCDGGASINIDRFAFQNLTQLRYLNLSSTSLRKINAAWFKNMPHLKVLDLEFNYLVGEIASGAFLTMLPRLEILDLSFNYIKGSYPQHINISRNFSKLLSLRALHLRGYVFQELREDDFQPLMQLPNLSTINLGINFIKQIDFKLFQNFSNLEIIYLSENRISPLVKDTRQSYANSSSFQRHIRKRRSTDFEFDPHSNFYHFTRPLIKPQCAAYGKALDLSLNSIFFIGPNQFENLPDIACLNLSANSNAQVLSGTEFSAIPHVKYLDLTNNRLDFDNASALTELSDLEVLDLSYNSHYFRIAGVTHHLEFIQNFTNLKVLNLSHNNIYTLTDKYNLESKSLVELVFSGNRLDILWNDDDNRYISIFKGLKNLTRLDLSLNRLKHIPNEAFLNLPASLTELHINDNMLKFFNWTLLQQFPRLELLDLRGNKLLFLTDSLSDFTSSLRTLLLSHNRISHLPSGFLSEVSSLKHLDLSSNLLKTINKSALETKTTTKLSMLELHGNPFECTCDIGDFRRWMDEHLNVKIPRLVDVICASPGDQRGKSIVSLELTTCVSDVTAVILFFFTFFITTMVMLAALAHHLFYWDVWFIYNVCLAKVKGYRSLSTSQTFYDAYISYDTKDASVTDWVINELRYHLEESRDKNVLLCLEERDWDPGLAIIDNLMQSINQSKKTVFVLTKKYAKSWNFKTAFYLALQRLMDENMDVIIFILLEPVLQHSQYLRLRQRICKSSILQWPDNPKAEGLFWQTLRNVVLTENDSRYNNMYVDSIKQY
Summary of the method: as §1

human TLR7 = molecular target: T3, human TLR7 (Homo sapiens, UniProt Q9NYK1); assay: TLR7 inhibition reporter assay (HEK-Blue cells, SEAP reporter, gardiquimod stimulation); settings: HEK-Blue cells overexpressing human TLR7, SEAP reporter, gardiquimod 7.5 μM
T3 construct: host or cells: HEK-Blue cells (HEK293-derived reporter line)
T3 sequence (Q9NYK1 27-1049): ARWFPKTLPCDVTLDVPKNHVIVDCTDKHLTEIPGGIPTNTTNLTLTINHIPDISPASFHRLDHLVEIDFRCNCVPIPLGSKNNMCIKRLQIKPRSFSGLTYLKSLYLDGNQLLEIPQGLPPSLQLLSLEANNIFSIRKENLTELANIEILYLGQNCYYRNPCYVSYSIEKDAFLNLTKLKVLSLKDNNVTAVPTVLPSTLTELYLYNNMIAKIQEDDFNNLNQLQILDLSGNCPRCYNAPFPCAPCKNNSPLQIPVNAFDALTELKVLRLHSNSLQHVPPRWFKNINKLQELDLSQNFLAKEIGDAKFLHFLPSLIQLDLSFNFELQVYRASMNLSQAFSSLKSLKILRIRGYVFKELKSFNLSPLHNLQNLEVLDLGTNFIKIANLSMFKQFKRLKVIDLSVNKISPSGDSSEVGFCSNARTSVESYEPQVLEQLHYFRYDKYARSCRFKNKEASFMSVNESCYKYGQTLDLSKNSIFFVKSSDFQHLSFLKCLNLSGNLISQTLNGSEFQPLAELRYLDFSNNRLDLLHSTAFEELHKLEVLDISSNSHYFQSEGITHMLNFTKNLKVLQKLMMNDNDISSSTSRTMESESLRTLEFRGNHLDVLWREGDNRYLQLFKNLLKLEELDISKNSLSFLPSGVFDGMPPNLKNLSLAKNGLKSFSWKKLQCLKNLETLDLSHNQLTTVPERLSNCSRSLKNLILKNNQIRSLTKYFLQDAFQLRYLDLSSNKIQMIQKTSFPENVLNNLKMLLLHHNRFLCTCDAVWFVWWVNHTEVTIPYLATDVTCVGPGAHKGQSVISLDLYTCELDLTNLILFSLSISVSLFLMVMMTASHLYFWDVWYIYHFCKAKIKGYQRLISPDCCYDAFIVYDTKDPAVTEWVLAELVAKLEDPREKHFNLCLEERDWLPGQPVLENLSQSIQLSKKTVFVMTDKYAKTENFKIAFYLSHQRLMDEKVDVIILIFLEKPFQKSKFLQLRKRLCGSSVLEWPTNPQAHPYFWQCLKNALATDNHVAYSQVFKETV
Summary of the method: as §1

| SMILES | IC50 (human TLR9) | IC50 (human TLR8) | IC50 (human TLR7) |
| --- | --- | --- | --- |
| Cc1cc(-c2[nH]c3ccc(C4CCN(C(=O)CN(C)C)CC4)cc3c2C(C)C)cc2c1oc(=O)n2C [Example 489, 5-(5-(1-(dimethylglycyl)piperidin-4-yl)-3-isopropyl-1H-indol-2-yl)-3,7-dimethylbenzo[d]oxazol-2(3H)-one] | 1000 to 50000 nM | 100 to 1000 nM | < 100 nM |
| CC(C)c1c(-c2ccnc3[nH]cnc23)[nH]c2ccc(C3CCNCC3)cc12 [Example 61, 7-(3-isopropyl-5-(piperidin-4-yl)-1H-indol-2-yl)-3H-imidazo[4,5-b]pyridine] | 100 to 1000 nM | < 100 nM | < 100 nM |
| CC(C)c1c(-c2cnc3ccnn3c2)[nH]c2ccc(C3CCN(C(=O)CN(C)C)CC3)cc12 [Example 502, 2-(dimethylamino)-1-(4-(3-isopropyl-2-(pyrazolo[1,5-a]pyrimidin-6-yl)-1H-indol-5-yl)piperidin-1-yl)ethan-1-one] | 100 to 1000 nM | > 3130 nM | 1000 to 50000 nM |
| CC(C)c1c(-c2cc(CO)c3nccn3c2)[nH]c2ccc(C3CCN(CC(=O)N(C)C)CC3)cc12 [Example 329, 2-(4-(2-(8-(hydroxymethyl)imidazo [1,2-a]pyridin-6-yl)-3-isopropyl-1H-indol-5-yl)piperidin-1-yl)-N,N-dimethylacetamide] | 100 to 1000 nM | < 100 nM | < 100 nM |
| Cc1cc(-c2[nH]c3ccc(C4CCN(CCC(F)(F)F)CC4)cc3c2C(C)C)cn2nnnc12 [Example 962, 6-(3-isopropyl-5-(1-(3,3,3-trifluoropropyl)piperidin-4-yl)-1H-indol-2-yl)-8-methyltetrazolo[1,5-a]pyridine] | > 50000 nM | < 100 nM | < 100 nM |
| CCc1c(-c2cccc3c2cnn3C)[nH]c2ccc(C3CCN(C(=O)CN(C)C)CC3)cc12 [Example 520, 2-(dimethylamino)-1-(4-(3-ethyl-2-(1-methyl-1H-indazol-4-yl)-1H-indol-5-yl)piperidin-1-yl)ethan-1-one] | 1000 to 50000 nM | > 50000 nM | > 50000 nM |
| CCc1c(-c2cnc3[nH]c(=O)[nH]c3c2)[nH]c2ccc(C3CCNCC3)cc12 [Example 180, 6-(3-ethyl-5-(piperidin-4-yl)-1H-indol-2-yl)-1,3-dihydro-2H-imidazo[4,5-b]pyridin-2-one] | 1000 to 50000 nM | 1000 to 50000 nM | 1000 to 50000 nM |
| CC(C)c1c(-c2ccnc3[nH]ncc23)[nH]c2ccc(C3CCN(C(=O)CN4CCCN(C)CC4)CC3)cc12 [Example 577, 1-(4-(3-isopropyl-2-(1H-pyrazolo[3,4-b]pyridin-4-yl)-1H-indol-5-yl)piperidin-1-yl)-2-(4-methyl-1,4-diazepan-1-yl)ethan-1-one] | 100 to 1000 nM | < 100 nM | < 100 nM |
| Cc1cc(-c2[nH]c3ccc(C4CCN(C(=O)CCN5CC(C)(C)OC(C)(C)C5)CC4)cc3c2C(C)C)cn2nnnc12 [Example 621, 1-(4-(3-isopropyl-2-(8-methyltetrazolo[1,5-a]pyridin-6-yl)-1H-indol-5-yl)piperidin-1-yl)-3-(2,2,6,6-tetramethylmorpholino)propan-1-one] | 1000 to 50000 nM | < 100 nM | < 100 nM |
| CC(C)c1c(-c2cnc3ccnn3c2)[nH]c2ccc(C3CCNCC3)cc12 [Example 181, 6-(3-isopropyl-5-(piperidin-4-yl)-1H-indol-2-yl)pyrazolo[1,5-a]pyrimidine] | 1000 to 50000 nM | > 3130 nM | 1000 to 50000 nM |
| CC(C)c1c(-c2n[nH]c3nc[nH]c(=O)c23)[nH]c2ccc(C3CCNCC3)cc12 [Example 21, 3-(3-isopropyl-5-(piperidin-4-yl)-1H-indol-2-yl)-1,5-dihydro-4H-pyrazolo[3,4-d]pyrimidin-4-one] | 1000 to 50000 nM | 100 to 1000 nM | 1000 to 50000 nM |
| FC(F)Cc1c(-c2ccnc3[nH]ncc23)[nH]c2ccc(C3CCNCC3)cc12 [Example 178, 4-(3-(2,2-difluoroethyl)-5-(piperidin-4-yl)-1H-indol-2-yl)-1H-pyrazolo[3,4-b]pyridine] | 1000 to 50000 nM | 100 to 1000 nM | 100 to 1000 nM |
| Cc1cn2cc(-c3[nH]c4ccc(C5CCN(Cc6cnn(C)c6)CC5)cc4c3C(C)C)cc(C(F)(F)F)c2n1 [Example 934, 6-(3-isopropyl-5-(1-((1-methyl-1H-pyrazol-4-yl)methyl)piperidin-4-yl)-1H-indol-2-yl)-2-methyl-8-(trifluoromethyl)imidazo[1,2-a]pyridine] | 1000 to 50000 nM | 100 to 1000 nM | < 100 nM |
| Cc1cc(-c2[nH]c3ccc(C4CCNCC4)cc3c2C(C)C)cn2c(C#N)cnc12 [Example 130, 6-(3-isopropyl-5-(piperidin-4-yl)-1H-indol-2-yl)-8-methylimidazo[1,2-a]pyridine-3-carbonitrile] | 1000 to 50000 nM | < 100 nM | 100 to 1000 nM |
